Reference: ChEMBL document CHEMBL5137092, “Nostosin G and Spiroidesin B from the Cyanobacterium Dolichospermum sp. NIES-1697” (J Nat Prod, 2022)

Target: Trypsin (Homo sapiens, UniProt P07477+P07478+P35030)
Assay: Inhibition of trypsin (unknown origin) using Nalpha-benzoyl-D/L-arginine-4-nitroanilide hydrochloride as substrate preincubated for 5 mins followed by substrate addition and measured upto 30 mins by absorbance based assay
Assay type: protein assay

SMILES	IC50 [nM]
CC(=O)N[C@@H](CC(C)C)C(=O)N[C@@H](CC(C)C)C(=O)N[C@H](C=O)CCCNC(=N)N [LEUPEPTIN]	600
N=C(N)NCCC[C@@H](CO)NC(=O)[C@H](CCc1ccc(O)cc1)NC(=O)[C@H](O)Cc1ccc(O)cc1	> 200000
N=C(N)NCCC[C@@H](C=O)NC(=O)[C@H](CCc1ccc(O)cc1)NC(=O)[C@H](O)Cc1ccc(O)cc1	100
